Legend:
T-cells = experiment: In vivo activity: CD25 expression on CD4+ or CD8+ T-cells of mice stimulated with anti-CD3 antibody; settings: 2 μg anti-CD3 antibody, 24 hours
Experimental: A method of determining the pharmacodynamic profile of Cbl-b inhibitors was performed by dosing strains of mice with competent immune systems such as C57BL/6 or BALB/c with a Cbl-b inhibitor. The Cbl-b inhibitor was dissolved in a suitable formulation and administered by one of various routes such as intravenous (IV), intraperitoneal (IP), subcutaneous (SC), or oral (PO), at a suitable dose level and frequency (e.g. twice per day BID or thrice per day TID) as informed by prior pharmacokinetic and tolerability studies. Following administration of the Cbl-b inhibitor, T-cells and indirectly other immune cells (e.g. via cytokine production) were stimulated in vivo by administration of an anti-CD3 antibody or antigen-binding fragment thereof in PBS at defined amounts such as 2 μg or 10 μg per animal by routes such as IV or IP (See Hirsh et al., J. Immunol., 1989; Ferran, et al., Eur. J. Immunol., 1990). Additional study control arms included groups of mice treated with a vehicle formulation alone (i.e., formulation without the Cbl-b inhibitor and anti-CD3 antibody), a formulation containing the Cbl-b inhibitor alone, a formulation containing the anti-CD3 antibody alone, PBS alone, or combinations of these agents. The level of immune activation was then assessed by analysis of plasma cytokine levels and/or expression of activation markers on immune cells (e.g. T-cells). Blood or lymphoid organs (e.g. spleen) were collected at defined time points (e.g. 8 hours or 24 hours). Blood samples were processed to collect plasma for determination of cytokine levels using standard methods known in the art. Cytokines measured included IL-2, IFNγ, and TNFα. Additional blood samples and lymphoid tissues were processed for flow cytometric analysis of immune cells (e.g. T-cells) using standard methods to determine expression of cell type-specific markers and activation markers such as CD25 and/or CD69. Augmentation of immune stimulation by Cbl-b inhibitor administration was assessed by comparing the relative concentrations of cytokines in plasma, or the expression levels of activation markers on immune cells between appropriate groups (e.g. mice treated with Cbl-b inhibitor and 2 μg anti-CD3 antibody versus mice treated with vehicle and 2 μg anti-CD3 antibody).
Cbl-b inhibitors were tested to determine their ability to induce or enhance the level of cytokines (e.g. IL-2, IFNγ, and TNFα) in blood obtained from treated mice stimulated with an anti-CD3 antibody, which is indicative of modulation of the immune response. Cbl-b inhibitors were also tested to determine their ability to induce or enhance the expression of cell surface markers on T-cells (e.g. CD25 and/or CD69) isolated from treated mice stimulated with an anti-CD3 antibody, which is indicative of modulation of the immune response.
Readouts were reported as fold change over baseline. The fold change was calculated from the mean value of mice treated with Cbl-b inhibitor and 2 μg anti-CD3 antibody, with the baseline defined as the mean value of mice treated with vehicle and 2 μg anti-CD3 antibody. Increases in the percentage of cells with surface expression of CD25 on CD4+ T-cells or CD8+ T-cells greater than 1.5-fold over baseline at 24 hours were considered a positive response. Increases in the plasma concentration of IL-2, IFNγ, and TNFα greater than 1.5-fold over baseline at 8 hours post-stimulation were also considered a positive response (Table 8). Fold changes were ranked into bins according to their readouts as follows: A indicates >2.50, B indicates 2.01-2.50, C indicates 1.51-2.00, D indicates 1.00-1.50, and E indicates <1.00.

T-cell = experiment: CD25 cell surface staining on T-cells stimulated with anti-CD3 antibody alone (Biological Example 2); format: cell-based; settings: primary human total T-cells, baseline = anti-CD3/anti-CD28 stimulated cells without inhibitor, read-out: CD25 staining, Anti-CD3 stimulation, fold change over baseline; for fold induction at 1 µM: 1 μM compound; for fold induction at 8 µM: 8 μM compound

SMILES	CD4+ T-cell % CD25+ (T-cells; 45 mpk PO BID)	CD8+ T-cell % CD25+ (T-cells; 45 mpk PO BID)	CD4+ T-cell % CD25+ (T-cells; 90 mpk PO BID)	CD8+ T-cell % CD25+ (T-cells; 90 mpk PO BID)	CD4+ T-cell % CD25+ (T-cells; 180 mpk PO BID)	CD8+ T-cell % CD25+ (T-cells; 180 mpk PO BID)	CD4+ T-cell % CD25+ (T-cells; 45 mpk IP BID)	CD8+ T-cell % CD25+ (T-cells; 45 mpk IP BID)	CD4+ T-cell % CD25+ (T-cells; 135 mpk PO BID)	CD8+ T-cell % CD25+ (T-cells; 135 mpk PO BID)	fold induction at 1 µM (T-cell)	fold induction at 8 µM (T-cell)
C[C@H](c1cc2c(c(C(F)(F)F)c1)CN(c1cccc(C3([C@H](F)c4nncn4C)COC3)c1)C2=O)N1CCC2(CC2)C1 (stereo in doubt) [Example 575, 6-((R)-1-(5-Azaspiro[2.4]heptan-5-yl)ethyl)-2-(3-(3-((S)-fluoro(4-methyl-4H-1,2,4-triazol-3-yl)methyl)oxetan-3-yl)phenyl)-4-(trifluoromethyl)isoindolin-1-one]	C (C indicates 1.51-2.00)	D (D indicates 1.00-1.50)	A (A indicates >2.50)	C (C indicates 1.51-2.00)	A (A indicates >2.50)	C (C indicates 1.51-2.00)	–	–	–	–	–	–
C[C@H](Cc1nncn1C)c1cccc(NC(=O)c2cc(C3CC3)cc(C(F)(F)F)n2)c1 [Compound 191, (R)-4-cyclopropyl-N-(3-(1-(4-methyl-4H-1,2,4-triazol-3-yl)propan-2-yl)phenyl)-6-(trifluoromethyl)picolinamide]	–	–	D (D indicates 1.00-1.50)	D (D indicates 1.00-1.50)	B (B indicates 2.01-2.50)	D (D indicates 1.00-1.50)	C (C indicates 1.51-2.00)	D (D indicates 1.00-1.50)	D (D indicates 1.00-1.50)	D (D indicates 1.00-1.50)	–	–
CN1CC2CCC(C1)N2c1cc2c(c(C(F)(F)F)c1)CN(c1cccc(C3(Cc4nncn4C)COC3)c1)C2=O [Compound 386, 2-(3-(3-((4-Methyl-4H-1,2,4-triazol-3-yl)methyl)oxetan-3-yl)phenyl)-6-(3-methyl-3,8-diazabicyclo[3.2.1]octan-8-yl)-4-(trifluoromethyl)isoindolin-1-one]	–	–	–	–	–	–	–	–	C (C indicates 1.51-2.00)	D (D indicates 1.00-1.50)	–	–
Cn1cnnc1CC1(c2cccc(N3Cc4c(cc(CN5CC[C@H](F)C5)cc4C(F)(F)F)C3=O)c2)COC1 [Compound 410, 6-{[(3S)-3-fluoropyrrolidin-1-yl]methyl}-2-(3-{3-[(4-methyl-4H-1,2,4-triazol-3-yl)methyl]oxetan-3-yl}phenyl)-4-(trifluoromethyl)-2,3-dihydro-1H-isoindol-1-one]	–	–	D (D indicates 1.00-1.50)	D (D indicates 1.00-1.50)	D (D indicates 1.00-1.50)	D (D indicates 1.00-1.50)	–	–	D (D indicates 1.00-1.50)	D (D indicates 1.00-1.50)	> 1	> 1
Cn1cnnc1CC1(c2cccc(N3Cc4c(cc(CN5CC[C@@H](C#N)C5)cc4C(F)(F)F)C3=O)c2)COC1 [Compound 421, (R)-1-((2-(3-(3-((4-methyl-4H-1,2,4-triazol-3-yl)methyl)oxetan-3-yl)phenyl)-3-oxo-7-(trifluoromethyl)isoindolin-5-yl)methyl)pyrrolidine-3-carbonitrile]	–	–	E (E indicates <1.00)	E (E indicates <1.00)	E (E indicates <1.00)	E (E indicates <1.00)	–	–	E (E indicates <1.00)	E (E indicates <1.00)	> 1	> 1
Cn1cnnc1CC1(c2cccc(N3Cc4c(cc(CN5C[C@H]6C[C@H]6C5)cc4C(F)(F)F)C3=O)c2)COC1 [Compound 429, 6-(((1R,5S)-3-azabicyclo[3.1.0]hexan-3-yl)methyl)-2-(3-(3-((4-methyl-4H-1,2,4-triazol-3-yl)methyl)oxetan-3-yl)phenyl)-4-(trifluoromethyl)isoindolin-1-one]	–	–	–	–	–	–	–	–	D (D indicates 1.00-1.50)	D (D indicates 1.00-1.50)	> 1	> 1
Cn1cnnc1CC1(c2cccc(N3Cc4c(cc(CN5CCC[C@H](F)C5)cc4C(F)(F)F)C3=O)c2)COC1 [Compound 432, 6-{[(3S)-3-fluoropiperidin-1-yl]methyl}-2-(3-{3-[(4-methyl-4H-1,2,4-triazol-3-yl)methyl]oxetan-3-yl}phenyl)-4-(trifluoromethyl)-2,3-dihydro-1H-isoindol-1-one]	–	–	–	–	–	–	–	–	D (D indicates 1.00-1.50)	D (D indicates 1.00-1.50)	> 1	–
Cn1cnnc1C(F)(F)[C@](C)(F)c1cccc(N2Cc3c(cc(CN4CC[C@H](F)C4)cc3C(F)(F)F)C2=O)c1 [Compound 447, 6-(((S)-3-fluoropyrrolidin-1-yl)methyl)-2-(3-((R)-1,1,2-trifluoro-1-(4-methyl-4H-1,2,4-triazol-3-yl)propan-2-yl)phenyl)-4-(trifluoromethyl)isoindolin-1-one]	–	–	D (D indicates 1.00-1.50)	E (E indicates <1.00)	C (C indicates 1.51-2.00)	D (D indicates 1.00-1.50)	–	–	D (D indicates 1.00-1.50)	E (E indicates <1.00)	> 1	> 1
Cn1cnnc1CC1(c2cccc(N3Cc4c(cc(CN5CCC(C)(F)CC5)cc4C(F)(F)F)C3=O)c2)COC1 [Example 620, 6-((4-fluoro-4-methylpiperidin-1-yl)methyl)-2-(3-(3-((4-methyl-4H-1,2,4-triazol-3-yl)methyl)oxetan-3-yl)phenyl)-4-(trifluoromethyl)isoindolin-1-one]	–	–	D (D indicates 1.00-1.50)	D (D indicates 1.00-1.50)	D (D indicates 1.00-1.50)	E (E indicates <1.00)	–	–	D (D indicates 1.00-1.50)	E (E indicates <1.00)	–	–
C[C@@H]1CN(Cc2cc3c(c(C(F)(F)F)c2)CN(c2cccc(C4(Cc5nncn5C)COC4)c2)C3=O)CCO1 [Example 663b, (R)-2-(3-(3-((4-methyl-4H-1,2,4-triazol-3-yl)methyl)oxetan-3-yl)phenyl)-6-((2-methylmorpholino)methyl)-4-(trifluoromethyl)isoindolin-1-one]	D (D indicates 1.00-1.50)	D (D indicates 1.00-1.50)	–	–	–	–	–	–	C (C indicates 1.51-2.00)	D (D indicates 1.00-1.50)	–	–
Cn1cnnc1[C@@H](F)C1(c2cccc(N3Cc4c(cc(CN5CCC(F)CC5)cc4C(F)(F)F)C3=O)c2)COC1 [Example 670a, (S)-2-(3-(3-(fluoro(4-methyl-4H-1,2,4-triazol-3-yl)methyl)oxetan-3-yl)phenyl)-6-((4-fluoropiperidin-1-yl)methyl)-4-(trifluoromethyl)isoindolin-1-one]	–	–	–	–	–	–	–	–	B (B indicates 2.01-2.50)	D (D indicates 1.00-1.50)	–	–
Cn1cnnc1[C@H](F)C1(c2cccc(N3Cc4c(cc(CN5CCC(F)CC5)cc4C(F)(F)F)C3=O)c2)COC1 [Example 670b, (R)-2-(3-(3-(fluoro(4-methyl-4H-1,2,4-triazol-3-yl)methyl)oxetan-3-yl)phenyl)-6-((4-fluoropiperidin-1-yl)methyl)-4-(trifluoromethyl)isoindolin-1-one]	–	–	–	–	–	–	–	–	C (C indicates 1.51-2.00)	D (D indicates 1.00-1.50)	–	–

— patent US20220324835A1 (Nurix Therapeutics, Inc., priority 2018, published 2022)
